Test results taken from US20210346385A1, “TASTE-MASKED DOSAGE FORMS” (MSB Holdings, Inc, priority 2018, published 2021).

Experiment: Dissolving time of the troche
Assay type: physicochemical
[1] = ingredient in troche of Example 4f
[2] = ingredient in troche of Example 4i
[3] = ingredient in troche of Example 4j
[4] = ingredient in troche of Example 4k
[5] = ingredient in troche of Example 4l
[6] = ingredient in troche of Example 4m
[7] = ingredient in troche of Example 4n
[8] = ingredient in troche of Example 4o (ButterCream)
[9] = ingredient in troche of Example 4o (Vanilla, Marshmallow)
[10] = ingredient in troche of Example 4p
[11] = ingredient in troche of Example 4c, troche with silica, acacia and Winterfresh
[12] = ingredient in troche of Example 4d, troche with Alpha agent, silica, acacia, cherry
[13] = ingredient in troche of Example 42
[14] = ingredient in troche of Example 4h

Row | Dissolving time: remark for the single ingredient [1] | Dissolving time: remark for the single ingredient [2] | Dissolving time: remark for the single ingredient [3] | Dissolving time: remark for the single ingredient [4] | Dissolving time: remark for the single ingredient [5] | Dissolving time: remark for the single ingredient [6] | Dissolving time: remark for the single ingredient [7] | Dissolving time: remark for the single ingredient [8] | Dissolving time: remark for the single ingredient [9] | Dissolving time: remark for the single ingredient [10] | Dissolving time: remark for the single ingredient (ingredient in troche of Example 4b) | Dissolving time: remark for the single ingredient [11] | Dissolving time: remark for the single ingredient [12] | Dissolving time: remark for the single ingredient [13] | Dissolving time: remark for the single ingredient [14] | Dissolving time: remark for the single ingredient (ingredient in troche of Example 4e) | Compound
1 | No effect | No effect | No effect | No effect | No effect | No effect | No effect | No effect | No effect | No effect | – | – | – | – | – | – | CC1=CC(=O)NS(=O)(=O)O1 [Acesulfame]
2 | – | – | – | – | – | – | – | – | – | – | Did Not Help | Did Not Help | No effect | – | – | – | Sugar
3 | – | – | No effect | No effect | No effect | No effect | No effect | No effect | No effect | No effect | – | – | – | No effect | No effect | – | C=C1C[C@@]23CC[C@H]4[C@@](C)(CCC[C@@]4(C)C(=O)O)[C@@H]2CC[C@]1(O)C3 [Steviol]
4 | No effect | No effect | No effect | No effect | No effect | No effect | No effect | No effect | No effect | No effect | – | No effect | No effect | No effect | No effect | No effect | CCCc1nn(C)c2c(=O)[nH]c(-c3cc(S(=O)(=O)N4CCN(C)CC4)ccc3OCC)nc12 [Sildenafil, reference compound]
